The values that follow come from patent US20240124479A1, “PYRIMIDINE CARBOXAMIDE COMPOUND AND USE THEREOF” (SHANGHAI MEIYUE BIOTECH DEVELOPMENT CO. LTD, priority 2020, published 2024).

One data set has as its target human plasma Vanin-1 (Homo sapiens (Human), UniProt O95497). Put plainly: Human plasma Vanin-1 enzyme activity inhibition assay. It is filed as biochemical. To be noted: 100-fold diluted human plasma, substrate 25 μM, reading at 30th minute; read-out: hPlasma IC50.
In the next data set the target is CYP3A4 (Homo sapiens, UniProt P08684). Briefly: in vitro. The settings on record: microsomes.
Sequence of CYP3A4 (P08684 2-503 limits assumed): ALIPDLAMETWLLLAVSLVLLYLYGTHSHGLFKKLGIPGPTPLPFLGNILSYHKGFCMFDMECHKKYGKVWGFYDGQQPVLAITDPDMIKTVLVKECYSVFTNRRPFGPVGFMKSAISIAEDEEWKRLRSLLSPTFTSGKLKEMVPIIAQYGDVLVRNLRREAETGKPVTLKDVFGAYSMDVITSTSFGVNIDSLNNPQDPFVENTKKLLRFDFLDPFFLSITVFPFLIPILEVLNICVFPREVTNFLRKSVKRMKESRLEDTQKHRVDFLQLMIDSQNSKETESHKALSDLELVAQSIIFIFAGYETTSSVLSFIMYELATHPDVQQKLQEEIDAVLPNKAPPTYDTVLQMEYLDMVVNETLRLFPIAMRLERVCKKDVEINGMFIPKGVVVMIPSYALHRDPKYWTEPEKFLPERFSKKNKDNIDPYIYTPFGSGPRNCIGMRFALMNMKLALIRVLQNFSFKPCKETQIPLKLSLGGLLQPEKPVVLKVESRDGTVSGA
The next data set has as its target CYP 2C19 (Homo sapiens (Human), UniProt P33261). Put plainly: CYP enzyme inhibitory activity IC50 assay (cocktail method), 2C19. In kind it is in vitro ADME. To be noted: microsomes 0.1 mg/mL, probe Mephenytoin. An excerpt:
(§1) […]. […] […].

The target of the next data set is CYP 2C9 (Homo sapiens (Human), UniProt P11712). Briefly: CYP enzyme inhibitory activity IC50 assay (cocktail method), 2C9. In kind it is in vitro ADME. The settings on record: microsomes 0.1 mg/mL, probe Diclofenac.
Sequence of CYP 2C9 (P11712 whole entry): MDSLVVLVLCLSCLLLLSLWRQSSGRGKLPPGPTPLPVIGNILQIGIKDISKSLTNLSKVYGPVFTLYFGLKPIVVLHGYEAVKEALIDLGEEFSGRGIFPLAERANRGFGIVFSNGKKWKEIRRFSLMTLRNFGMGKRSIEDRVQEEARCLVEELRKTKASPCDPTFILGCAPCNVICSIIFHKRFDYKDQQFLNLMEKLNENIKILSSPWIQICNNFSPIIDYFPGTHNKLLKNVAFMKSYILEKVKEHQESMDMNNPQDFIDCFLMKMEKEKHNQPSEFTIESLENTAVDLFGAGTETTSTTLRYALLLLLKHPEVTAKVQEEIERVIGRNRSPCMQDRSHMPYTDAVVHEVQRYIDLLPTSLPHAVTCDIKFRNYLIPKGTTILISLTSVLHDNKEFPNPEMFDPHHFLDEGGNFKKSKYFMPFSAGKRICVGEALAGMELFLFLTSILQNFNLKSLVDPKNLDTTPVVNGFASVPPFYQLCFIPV
Source text: as §1

In a further data set the target is CYP 1A2 (Homo sapiens (Human), UniProt P05177). Put plainly: CYP enzyme inhibitory activity IC50 assay (cocktail method), 1A2. In kind it is in vitro ADME. The settings on record: microsomes 0.1 mg/mL, probe Phenacetin.
Sequence of CYP 1A2 (P05177 whole entry): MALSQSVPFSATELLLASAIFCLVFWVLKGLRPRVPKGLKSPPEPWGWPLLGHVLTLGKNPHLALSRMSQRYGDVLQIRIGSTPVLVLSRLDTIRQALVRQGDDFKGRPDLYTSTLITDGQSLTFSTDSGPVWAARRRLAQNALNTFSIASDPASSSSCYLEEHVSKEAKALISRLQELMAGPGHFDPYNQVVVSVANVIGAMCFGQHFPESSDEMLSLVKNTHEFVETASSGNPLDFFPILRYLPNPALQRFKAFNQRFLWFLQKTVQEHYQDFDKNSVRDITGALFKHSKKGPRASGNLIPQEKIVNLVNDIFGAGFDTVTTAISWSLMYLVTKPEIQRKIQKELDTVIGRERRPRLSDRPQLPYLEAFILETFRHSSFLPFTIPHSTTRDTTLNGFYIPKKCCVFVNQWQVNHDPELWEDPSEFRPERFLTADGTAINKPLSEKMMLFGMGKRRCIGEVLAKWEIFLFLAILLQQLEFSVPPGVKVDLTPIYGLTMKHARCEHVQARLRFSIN
Source text: as §1

Data set [1] can be described thus: In vivo pharmacokinetic evaluation in mice. Also noted: clearance: unit not given here. The settings on record: for AUC(0-t): read-out: Area under the curve AUC0-7 h; for half-life: read-out: Half-life T1/2 (converted); for Cmax: read-out: Peak concentration Cmax. The source says: The vehicle used in the experiment was: DMSO: Solutol: PBS=5%:25%:70% (v/v/v). Preparation method: The required compound was weighed accurately, added with a certain volume of DMSO in a certain proportion, vortex-mixed until completely dissolved, then added successively with Solutol and PBS according to the above proportion, and mixed well. The vehicles used in the intravenous (iv) administration group and oral (po) administration group were the same vehicles in the experiment. The intravenous dose was 2 mpk and the oral dose was 5 mpk. Experimental blood collection time points: IV group: 0.083, 0.25, 0.5, 1, 2, 4, 7, 24 h. PO group: 200 μL of whole blood was collected from jugular vein at each time point of 0.25, 0.5, 1, 2, 4, 7 and 24 h, anticoagulated with EDTA-K2, and immediately centrifuged at 4000 rpm for 5 minutes at 4° C. The supernatant was taken and the samples were frozen and stored in a refrigerator at −80° C. Processing of plasma samples: the sample was precipitated with ACN/MeOH (1:1, v/v) precipitant containing internal standard, then centrifuged at 14000 rpm for 5 minutes. The supernatant was taken into LC-MS/MS (AB Triple Quard 5500) for analysis to obtain plasma concentrations, and parameters were calculated by the non-compartmental model of Winnolin 8.1 version.

Data set [2] is described as follows: In vitro liver microsome stability, overall statement. It is filed as in vitro ADME. The settings on record: human, mouse, rat liver microsomes; result in words. How it is done:
(§2) PBS Buffer was 50 mM K2HPO4 buffer.
(In general: Microsomes from liver hold many membrane-bound enzymes, among them those of drug oxidation.)

Data set [3] can be described thus: In vitro liver microsome stability assay, mouse. To be noted: liver microsomes, read-out: T1/2 Mouse. In kind it is in vitro ADME. The protocol:
as §2

A further data set deals with CYP enzymes. Briefly: CYP enzyme inhibition, overall statement on tested CYP enzymes. In kind it is in vitro ADME. To be noted: 1A2, 2C9, 2C19, 2D6, 3A4; result in words.
Source text: as §1

A short description of data set [4]: In vitro liver microsome stability assay, human. It is filed as in vitro ADME. To be noted: liver microsomes, read-out: T1/2 Human. The protocol:
as §2

Another data set has as its target CYP 2D6 (Homo sapiens (Human), UniProt P10635). Put plainly: CYP enzyme inhibitory activity IC50 assay (cocktail method), 2D6. To be noted: microsomes 0.1 mg/mL, probe Dextromethorphan. It is filed as in vitro ADME.
Source text: as §1

A short description of data set [5]: In vitro liver microsome stability assay, rat. In kind it is in vitro ADME. To be noted: liver microsomes, read-out: T1/2 Rat. The protocol: as §2
[6] abbreviates: mouse, plasma, 2 mg/kg, intravenous injection, 2 mpk.
Where [7] appears, read: mouse, plasma, po, 5 mg/kg, intragastric administration, 5 mpk.

Read-outs that look alike come from different tables or passages of the source.

Sequence of human plasma Vanin-1 (O95497 22-513): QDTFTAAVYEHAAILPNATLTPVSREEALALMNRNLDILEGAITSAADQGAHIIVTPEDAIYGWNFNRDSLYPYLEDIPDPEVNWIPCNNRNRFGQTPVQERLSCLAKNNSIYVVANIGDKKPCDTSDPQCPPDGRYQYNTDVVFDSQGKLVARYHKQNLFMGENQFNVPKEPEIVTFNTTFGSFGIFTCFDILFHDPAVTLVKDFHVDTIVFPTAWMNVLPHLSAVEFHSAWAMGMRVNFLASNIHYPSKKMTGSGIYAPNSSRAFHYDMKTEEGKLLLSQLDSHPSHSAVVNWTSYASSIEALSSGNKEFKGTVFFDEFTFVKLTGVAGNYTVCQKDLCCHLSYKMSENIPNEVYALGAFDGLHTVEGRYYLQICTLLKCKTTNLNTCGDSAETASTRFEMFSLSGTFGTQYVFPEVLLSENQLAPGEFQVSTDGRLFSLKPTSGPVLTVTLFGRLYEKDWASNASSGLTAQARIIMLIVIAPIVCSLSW
Sequence of CYP 2C19 (P33261 whole entry): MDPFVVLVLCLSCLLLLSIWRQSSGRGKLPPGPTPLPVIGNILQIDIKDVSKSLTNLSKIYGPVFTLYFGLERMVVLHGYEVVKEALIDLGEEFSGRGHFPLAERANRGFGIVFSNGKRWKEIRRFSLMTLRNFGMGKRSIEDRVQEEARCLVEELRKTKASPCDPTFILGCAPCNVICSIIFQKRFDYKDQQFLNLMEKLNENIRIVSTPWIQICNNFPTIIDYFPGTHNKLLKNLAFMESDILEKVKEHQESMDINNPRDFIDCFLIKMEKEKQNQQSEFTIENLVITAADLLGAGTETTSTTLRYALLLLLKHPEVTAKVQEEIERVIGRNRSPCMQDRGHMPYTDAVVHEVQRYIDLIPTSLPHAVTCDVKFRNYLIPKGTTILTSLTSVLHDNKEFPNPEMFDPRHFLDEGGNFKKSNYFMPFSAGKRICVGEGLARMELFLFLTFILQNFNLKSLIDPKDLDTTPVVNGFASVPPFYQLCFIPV
Sequence of CYP 2D6 (P10635 whole entry): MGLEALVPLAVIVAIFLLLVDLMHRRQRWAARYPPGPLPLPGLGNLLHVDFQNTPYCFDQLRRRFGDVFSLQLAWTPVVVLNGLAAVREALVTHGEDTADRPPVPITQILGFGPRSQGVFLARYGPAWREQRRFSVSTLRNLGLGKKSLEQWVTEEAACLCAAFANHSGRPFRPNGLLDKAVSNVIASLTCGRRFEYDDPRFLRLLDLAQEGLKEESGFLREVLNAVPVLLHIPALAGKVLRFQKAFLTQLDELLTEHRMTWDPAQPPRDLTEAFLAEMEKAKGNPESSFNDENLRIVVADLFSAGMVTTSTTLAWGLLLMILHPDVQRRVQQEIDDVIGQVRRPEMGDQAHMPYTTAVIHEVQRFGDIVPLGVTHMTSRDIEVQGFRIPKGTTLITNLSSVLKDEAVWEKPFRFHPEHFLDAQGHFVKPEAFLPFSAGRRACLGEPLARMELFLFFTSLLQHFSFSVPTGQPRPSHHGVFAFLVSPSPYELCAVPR

What is called IC50 is the concentration that inhibits the measured activity by half. With `O=C(c1cnc(NCc2ccc(F)cc2F)nc1)N1CCC2(CCOCC2)C1` [Compound 12], the 50% inhibitory concentration (IC50) on human plasma Vanin-1 is 0.0079 µM.
Same read-out and setting: for `CC(Nc1ncc(C(=O)N2CCC3(CCOCC3)C2)cn1)c1ccccc1` (stereo not shown) [Compound 6] the value was 0.0016 µM.
What is called Vd is the apparent volume that relates the amount in the body to the concentration in plasma or blood. Usually bioavailability stands for dose-corrected exposure relative to a reference, in per cent. For the molecule `CC(=O)N(C)[C@H]1CCN(C(=O)c2cnc(N[C@H](C)c3ccc(C(F)(F)F)cc3F)nc2)C1` [Compound 41-P2], the half-maximal inhibitory concentration (IC50) at 10 min at CYP3A4 was > 50 µM. Further, the 50% inhibitory concentration (IC50) against CYP 2C19 is > 50 µM; at CYP 2C9, 45.6 µM; at CYP 1A2, > 50 µM; against CYP 2D6, > 50 µM. In addition, the “Area under the curve AUC0-7 h” value in [1] (intragastric administration, 5 mpk) is 10656.5 ng·h/mL. Also, the AUC(0-t) stood at 4960 ng·h/mL in data set [1] (setting [6]) and 10700 ng·h/mL in data set [1] (setting [7]). For the same molecule, in [1] (mouse, plasma, 2 mg/kg, intravenous injection, 2 mpk, read-out: Clearance rate CL (converted)), the clearance was 0.112. Besides, in [1] (mouse, plasma, 2 mg/kg, intravenous injection, 2 mpk, read-out: Distributed solvent Vd), the Vd is 1.26 L/kg. For the same molecule, the half-life in [1] (setting [6]) was 2.8 h; in data set [1] (setting [7]), 5.6 h. Besides, the Cmax stood at 2140 ng/mL in [1] (setting [6]) and 1540 ng/mL in data set [1] (setting [7]). Further, the bioavailability in data set [1] (mouse, plasma, oral, intragastric administration 5 mpk vs intravenous 2 mpk, read-out: Bioavailability F %) came to 86%. Moreover, the liver microsome stability result in data set [2] was “remarkable stability”. Further, the results for the half-life at 1 μM in [3], in data set [4] and in data set [5] were 1.65 h, > 4.66 h and 3.31 h, respectively. Also, in the data set on CYP enzymes, the “inhibitory effect on the tested CYP enzymes” value was “basically no inhibitory effect”.
